Measured values from patent US20040254246A1, “Treating or preventing hot flashes using prodrugs of GABA analogs” (priority 2003, published 2004).

Tests used:
[1] = system: hot flashes in postmenopausal women; conditions: 59 postmenopausal women, double-blind placebo controlled trial; cited from earlier work
[2] = Drug release from sustained release oral osmotic dosage form in artificial gastric fluid; assay type: physicochemical; conditions: osmotic sustained release dosage form of Section 5.2 (700 mg drug composition), one 10 mil passageway
Experimental: A sustained release oral osmotic delivery dosage form containing the gabapentin prodrug 1-{[(α-isobutanoyloxyethoxy)carbonyl]aminomethyl}-1-cyclohexane acetic acid is prepared following methods described in Ayer et al., U.S. Pat. No. 5,707,663. Accordingly, 660 grams of 1-{[α-isobutanoyloxyethoxy)carbonyl]aminomethyl}-1-cyclohexane acetic acid and 30 grams of pharmaceutical acceptable poly(ethylene oxide), 5,000,000 molecular weight, is added to the bowl of a fluid bed granulator. The microencapsulation process is computerized and atomized in cycles. The process is initiated by first fluidizing the dry drug and the polymer powder for 3 minutes and the blended granules are microencapsulated with aqueous hydroxypropylmethylcellulose solution. The polymer solution is prepared by dissolving 35 grams of hydroxypropylmethylcellulose comprising 11,200 molecular weight in 400 grams of water. […]
The osmotic displacement-push composition is then prepared as follows: first, 3.7 kg of sodium chloride and 150 grams of red ferric oxide are separately screened through an 8 mesh screen using a Quadro comil. […] The conditions monitored during the process are as follows: solution spray rate of 400 g/min (3 nozzles are used); inlet temperature 45° C.; outlet temperature 24° C. and process air flow of 1,500 ft^3/minute. […]

[3] = system: hot flashes in postmenopausal women; assay: Open label clinical study of hot flash frequency and severity, osmotic sustained release capsules; assay type: in vivo, human; conditions: osmotic sustained release capsules 700 mg, two capsules twice daily (2800 mg/day), oral, two weeks
Text: Twenty postmenopausal women who have been experiencing hot flashes (an average of at least 6 per day, range 6-20 per day) over the past 12 months and who have not been treated with hormone therapy (i.e., no estrogen, progestin, tamoxifen or leuprolide therapy) over the past 2 months are recruited to an open label clinical study on the effect of administration of gabapentin prodrugs on the frequency and severity of hot flash symptoms. After a two week baseline screening assessment, the prodrug 1-{[(α-isobutanoyloxyethoxy)carbonyl]aminomethyl}-1-cyclohexane acetic acid, formulated as osmotic sustained release capsules containing 700 mg drug (preparation of the sustained release capsules is described in Section 5.2 above), is administered in two capsules twice daily (2800 mg/day, equal to ˜1400 mg gabapentin equivalents/day) for two weeks. Each patient records the frequency and severity of hot flashes in a diary following the protocol of Guttuso et al., Obstet. Gynecol 2003, 101, 337-345. Daily hot flash frequency is calculated by totaling the number of hot flashes per week and dividing by the number of days in the week for which data is recorded. The primary outcome measure is the percentage change in hot flash frequency from baseline to the end of treatment week two.

[4] = system: hot flashes in postmenopausal women; assay: Open label clinical study of hot flash frequency and severity, immediate release capsules; assay type: in vivo, human; conditions: immediate release 300 mg capsules, two capsules three times daily (1800 mg/day), oral, two weeks
Text: Twenty postmenopausal women who have been experiencing hot flashes (an average of at least 6 per day, range 6-20 per day) over the past 12 months and who have not been treated with hormone therapy (i.e., no estrogen, progestin, tamoxifen or leuprolide therapy) over the past 2 months are recruited to an open label clinical study on the effect of administration of a gabapentin prodrug on the frequency and severity of hot flash symptoms. After a two week baseline screening assessment, the prodrug 1-{[(α-isobutanoyloxyethoxy)carbonyl]aminomethyl}-1-cyclohexane acetic acid (synthesized as described by Gallop et al., International Publication No. WO 02/100347), formulated as an immediate release dosage form in 300 mg capsules, is administered in two capsules three times daily (1800 mg/day, equal to ˜900 mg gabapentin equivalents/day) for two weeks. Each patient records the frequency and severity of hot flashes in a diary following the protocol of Guttuso et al., Obstet. Gynecol. 2003, 101, 337-345. Daily hot flash frequency is calculated by totaling the number of hot flashes per week and dividing by the number of days in the week for which data is recorded. The primary outcome measure is the percentage change in hot flash frequency from baseline to the end of treatment week two. […]

## NCC1(CC(=O)O)CCCCC1 [gabapentin, 1-Aminomethyl-1-cyclohexane acetic acid]
[1]
  reduction in hot flash frequency from baseline: substantial reduction in hot flash frequency from baseline

## CC(OC(=O)NCC1(CC(=O)O)CCCCC1)OC(=O)C(C)C (stereo not drawn) [1-{[(α-isobutanoyloxyethoxy)carbonyl]aminomethyl}-1-cyclohexane acetic acid]
[2]
  release rate: > 20 mg/h
[3]
  decrease in mean hot flash intensity from baseline: more than 35%
[4]
  decrease in mean hot flash intensity from baseline: more than 35%
